From patent US11000512B2, “Use of DDX3 inhibitors as antiproliferative agents” (AZIENDA OSPEDALIERA UNIVERSITARIA SENESE, priority 2016, dated 2021)
pEC50, pIC50, pKi: −log10 of the molar value.

Columns and labels:
[1] = Parallel Artificial Membrane Permeability Assay (PAMPA), GI; assay type: in vitro ADME; details: GI (intestinal) PAMPA, value in brackets
Description: Parallel Artificial Membrane Permeability Assay (PAMPA). Donor solution (0.5 mM) was prepared by diluting 1 mM dimethylsulfoxide (DMSO) compound stock solution using phosphate buffer (pH 7.4, 0.025 M). Filters were coated with 5 μL of a 1% (w/v) dodecane solution of phosphatidylcholine prepared from CHCl3 solution 10% w/v, for intestinal permeability. Donor solution (150 μL) was added to each well of the filter plate. To each well of the acceptor plate were added 300 μL of solution (50% DMSO in phosphate buffer). All compounds were tested in three different plates on different days. The sandwich was incubated for 5 h at room temperature under gentle shaking. After the incubation time, the plates were separated, and samples were taken from both receiver and donor sides and analyzed using LC with UV detection at 280 nm.
LC analysis were performed with a Varian Prostar HPLC system (Varian Analytical Instruments, USA) equipped with a binary pump with a manual injection valve and model Prostar 325 UV-VIS Detector. Chromatographic separations were conducted using a Polaris C18-A column (150-4.6 mm, 5 μm particle size) at a flow rate of 0.8 mL min^−1 with a mobile phase composed of 60% ACN/40% H2O.
Permeability (Papp) for PAMPA was calculated according to the following equation, obtained from Wohnsland and Faller and Sugano et al. equation with some modification in order to obtain permeability values in cm s^−1,
where VA is the volume in the acceptor well, VD is the volume in the donor well (cm^3), A is the “effective area” of the membrane (cm^2), t is the incubation time (s) and r the ratio between drug concentration in the acceptor and equilibrium concentration of the drug in the total volume (VD+VA). Drug concentration is estimated by using the peak area integration.
Membrane retentions (%) were calculated according to the following equation: […]
where r is the ratio between drug concentration in the acceptor and equilibrium concentration, D, A, and Eq represented drug concentration in the donor, acceptor and equilibrium solution, respectively.

Water Solubility Assay = assay type: physicochemical
Description: Water Solubility Assay. Each solid compound (1 mg) was added to 1 mL of water. The samples were shaked in a shaker bath at room temperature for 24-36 h. The suspensions were filtered through a 0.45 μm nylon filter (Acrodisc), and the solubilized compound determined by LC-MS-MS assay. For each compound the determination was performed in triplicate.
(§1) For the quantification was used an LC-MS system consisted of a Varian apparatus (Varian Inc) including a vacuum solvent degassing unit, two pumps (212-LC), a Triple Quadrupole MSD (Mod. 320-LC) mass spectrometer with ES interface and Varian MS Workstation System Control Vers. 6.9 software. Chromatographic separation was obtained using a Pursuit C18 column (50×2.0 mm) (Varian) with 3 μm particle size and gradient elution: eluent A being ACN and eluent B consisting of water. […] The flow rate was 0.2 mL min^−1 and injection volume was 5 μL. The instrument operated in positive mode and parameters were: detector 1850 V, drying gas pressure 25.0 psi, desolvation temperature 300.0° C., nebulizing gas 40.0 psi, needle 5000 V and shield 600 V. Nitrogen was used as nebulizer gas and drying gas. Collision induced dissociation was performed using Argon as the collision gas at a pressure of 1.8 mTorr in the collision cell. Microsomal Stability Assay. […] The reaction was stopped by cooling on ice and adding 1.0 mL of acetonitrile. The reaction mixtures were then centrifuged, and the parent drug and metabolites were subsequently determined by LC-UV-MS. Chromatographic analysis was performed with an Agilent 1100 LC/MSD VL system (G1946C) (Agilent Technologies, Palo Alto, Calif.) constituted by a vacuum solvent degassing unit, a binary high-pressure gradient pump, an 1100 series UV detector, and an 1100 MSD model VL benchtop mass spectrometer.

[2] = Microsomal Stability Assay (HLM); assay type: in vitro ADME; details: human liver microsomes, 37° C., 60 min, NADPH-generating system; percentage of not metabolized compound
Text: as §1
Chromatographic separation was obtained using a Varian Polaris C18-A column (150-4.6 mm, 5 μm particle size) and gradient elution: eluent A being ACN and eluent B consisting of water. […] The flow rate was 0.8 mL min^−1 and injection volume was 20 μL.
The Agilent 1100 series mass spectra detection (MSD) single-quadrupole instrument was equipped with the orthogonal spray API-ES (Agilent Technologies, Palo Alto, Calif.). Nitrogen was used as nebulizing and drying gas. The pressure of the nebulizing gas, the flow of the drying gas, the capillary voltage, the fragmentor voltage, and the vaporization temperature were set at 40 psi, 9 L/min, 3000 V, 70 V, and 350° C., respectively. UV detection was monitored at 280 nm. The LC-ESI-MS determination was performed by operating the MSD in the positive ion mode. Spectra were acquired over the scan range m/z 100-1500 using a step size of 0.1 u. The percentage of not metabolized compound was calculated by comparison with reference solutions.

[3] = target: T1, Human recombinant DDX3 (DDX3 wt helicase) (Homo sapiens, UniProt O00571); experiment: Helicase assay (anti-enzymatic activity against the DDX3 helicase); assay type: biochemical; details: DDX3 helicase activity, dsRNA unwinding; n.a = Compound not active; read-out: ID50 (the source's name)
T1 construct: made in house
T1 sequence (O00571 whole entry): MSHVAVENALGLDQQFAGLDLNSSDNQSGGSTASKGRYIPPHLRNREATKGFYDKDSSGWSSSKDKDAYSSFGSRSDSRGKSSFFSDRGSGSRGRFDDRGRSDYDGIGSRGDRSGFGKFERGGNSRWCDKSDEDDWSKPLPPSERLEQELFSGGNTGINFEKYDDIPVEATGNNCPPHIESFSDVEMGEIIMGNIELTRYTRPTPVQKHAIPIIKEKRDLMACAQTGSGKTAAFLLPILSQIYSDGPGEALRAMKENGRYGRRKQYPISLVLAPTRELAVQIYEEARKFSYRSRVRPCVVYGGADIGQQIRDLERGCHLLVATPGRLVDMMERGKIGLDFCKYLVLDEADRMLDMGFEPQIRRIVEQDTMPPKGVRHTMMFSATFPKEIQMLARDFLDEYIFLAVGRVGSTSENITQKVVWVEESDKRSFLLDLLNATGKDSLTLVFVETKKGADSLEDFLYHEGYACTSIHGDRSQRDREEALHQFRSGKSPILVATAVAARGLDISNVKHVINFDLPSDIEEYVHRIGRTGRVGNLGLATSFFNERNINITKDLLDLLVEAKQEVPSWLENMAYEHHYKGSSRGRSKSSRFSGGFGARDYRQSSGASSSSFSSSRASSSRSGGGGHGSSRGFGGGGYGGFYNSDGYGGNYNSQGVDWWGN
Description: The helicase activity of DDX3 wt was monitored by measuring the conversion of a double stranded (ds) RNA (labelled at the 5′-end of one strand with a 6-FAM fluorescent) into single stranded (ss) nucleic acid. A final concentration of 25 nM RNA substrate was used in the experiments, unless otherwise stated. Reactions were performed in 50 mM TrisHCl pH 7.5, 1 mM DTT, 0.2 mg/ml BSA, 5% glycerol and 100 μM ATP, 10 mM MgCl2 at 37° C. degrees for 10′ and stopped by adding EDTA 50 mM pH 8. Products were separated through non-denaturating 8% PAGE at 5 W for 4 hours in TBE buffer at 4° C. Substrates and products were quantified by laser scanning densitometry (Thyphoon-TRIO, GE Healthcare).
Human recombinant DDX3 was cloned, expressed and purified as described (Franca et al. Proteins 2007, 67, 1128-37).

[4] = system: Human Prostate cell line derived from brain metastasis (DU-145); experiment: Cytotoxicity test / growth inhibition, DU-145; assay type: cell-based; details: DU-145, 48 hours, cell counting
Description: (§2) Cells were purchased from American Type Culture Collection (ATCC, Manassas, Va., USA). The LNCaP (ATCC® CRL-1740™), A549 (ATCC® CCL-185™), MDA-MB-231 (ATCC® CRM-HTB-26™), 22Rv1 (ATCC® CRL-2505™), HCT-116 (ATCC® CCL-247™) and PC3 (ATCC® CRL-1435™) cells were maintained in Roswell Park Memorial Institute 1640 medium (RPMI; Euroclone, ECB9006L) supplemented with 10% fetal bovine serum (Euroclone; ECS0180L), 2 mM L-glutamine, 100 units/mL penicillin and […] streptomycin at 37° C. in an atmosphere of 5% CO2/air. DU145 (ATCC® HTB-81™), and DAOY (ATCC® HTB-186™) cells were maintained in Eagle's minimal essential medium (EMEM; Euro-clone, ECM0445L) supplemented with 10% fetal bovine serum (Euroclone; ECS0180L), 2 mM L-glutamine, 100 units/ml penicillin and […] streptomycin at 37° C. in an atmosphere of 5% CO2/air. SH-SY5Y (ATCC® CRL-2266™), DBRTG (ATCC® CRL-2020™), HeLa (ATCC® CCL-2™), HN6 cells (kindly provided by Dr Silvio Gutkind, UCSD Medical Center, Moores Cancer Center USA, Chen J. J et al, Oncotarget 2013, 4, 206-217)), U2OS (ATCC® HTB-96™), RD18 cells (kindly provided by Dr P. Boccuni Memorial Sloan-Kettering Cancer Center, New York, USA Vella S. et al. Clin Epigenetics. 2015 6; 7-82), cells were maintained in Dulbecco's modified Eagle's medium (DMEM; Euroclone, ECB7501L) supplemented with 10% fetal bovine serum (Euroclone; ECS0180L), 2 mM L-glutamine, 100 units/ml penicillin and 100 mg/mL streptomycin at 37° C. in an atmosphere of 5% CO2/air.
(§3) Cell lines were seeded at appropriate densities in 2 mL growth medium in 6-wells culture plates 24 hours before the treatment with the inhibitor compounds. After 24 h the culture medium was removed and fresh medium containing increasing concentrations of chemical compounds was added to cells. The fixed final concentrations were: 0.1 μM, 1 μM, 10 μM, 100 μM. DMSO was the vehicle used for dilution of the compounds and its final concentration on cells was less than 0.2%. Medium-only containing wells were included as controls. Cells were incubated 48 hours with drugs and, then, cell viability was evaluated.
Cells were detached from each well of the 6-wells plates with 300 μL of Trypsin and suspended in culture medium to a final volume of 1 mL. Cell viability was then assessed through cell counting. Cells were diluted in 1:50 ratio of an isotonic buffered diluent, Isoton (Backman Coulter), following the manufacturer's instructions, and counted using an automated cell counter (Z2 series Coulter Counter, Beckman Coulter). Each cell count was performed in three replicates. The values corresponding to the relative survival of cells in presence of each chemical compound at single concentrations were normalized to the untreated controls. […]

[5] = system: Human Prostate cancer cell line (PC3); experiment: Cytotoxicity test / growth inhibition, PC3; assay type: cell-based; details: PC3, 48 hours, cell counting
Description: as §2, with “2015 6; 7-82), cells were maintained in Dulbecco's modified Eagle's medium (DMEM; Euroclone, ECB7501L) supplemented with 10% fetal bovine serum (Euroclone; ECS0180L), 2 mM L-glutamine, 100 units/ml penicillin and 100 mg/mL streptomycin at 37° C. in an atmosphere of 5% CO2/air.” left out
(§4) Cell lines were seeded at appropriate densities in 2 mL growth medium in 6-wells culture plates 24 hours before the treatment with the inhibitor compounds. […] Cells were incubated 48 hours with drugs and, then, cell viability was evaluated.
(§5) Cells were detached from each well of the 6-wells plates with 300 μL of Trypsin and suspended in culture medium to a final volume of 1 mL. Cell viability was then assessed through cell counting. Cells were diluted in 1:50 ratio of an isotonic buffered diluent, Isoton (Backman Coulter), following the manufacturer's instructions, and counted using an automated cell counter (Z2 series Coulter Counter, Beckman Coulter). […]

[6] = system: Human adenocarcinomic alveolar basal epithelial cell line (A549); experiment: Cytotoxicity test / growth inhibition, A549; assay type: cell-based; details: A549, 48 hours, cell counting
Description: as §2, §3
(§6) Cells were detached from each well of the 6-wells plates with 300 μL of Trypsin and suspended in culture medium to a final volume of 1 mL. Cell viability was then assessed through cell counting. Cells were diluted in 1:50 ratio of an isotonic buffered diluent, Isoton (Backman Coulter), following the manufacturer's instructions, and counted using an automated cell counter (Z2 series Coulter Counter, Beckman Coulter). Each cell count was performed in three replicates. The values corresponding to the relative survival of cells in presence of each chemical compound at single concentrations were normalized to the untreated controls. Then, the half maximal inhibitory concentration (IC50) value, which represent the drug concentration that is required to induce a 50% growth inhibition in vitro, was calculated with GraphPad Prism 6.0 software using the best fitting sigmoid curve.

[7] = system: Human colorectal carcinoma cell line (HCT116); experiment: Cytotoxicity test / growth inhibition, HCT116; assay type: cell-based; details: HCT-116, HCT116, 48 hours, cell counting
Description: as §2, with “2015 6; 7-82), cells were maintained in Dulbecco's modified Eagle's medium (DMEM; Euroclone, ECB7501L) supplemented with 10% fetal bovine serum (Euroclone; ECS0180L), 2 mM L-glutamine, 100 units/ml penicillin and 100 mg/mL streptomycin at 37° C. in an atmosphere of 5% CO2/air.” left out
as §4, §5

[8] = system: Human osteosarcoma cell line (U2OS); experiment: Cytotoxicity test / growth inhibition, U2OS; assay type: cell-based; details: 48 hours, cell counting
Description: as §2, §3, §6

[9] = system: Human head and neck squamous carcinoma cell line (HN6); experiment: Cytotoxicity test / growth inhibition, HN6; assay type: cell-based; details: HN6, 48 hours, cell counting
Description: as §2, §3, §6

ATPase activity of DDX3 = ATPase activity of DDX3 (Homo sapiens, UniProt O00571); details: Maga et al. 2008; cited from earlier work
Sequence of ATPase activity of DDX3 (O00571 whole entry): as above

HIV-1 (IIIB) = HIV-1 (IIIB) in MT4-cells; cited from earlier work
MOLT-4 T-lymphocytic = details: cited from earlier work

In the case of `CCCCn1nnc(-c2ccc(NC(=O)Nc3ccccc3C)cc2)n1` [Compound 49, 1-(4-(2-butyl-2H-tetrazol-5-yl)phenyl)-3-(o-tolyl)urea], the “PAMPA GI (RM %) membrane retention” value [1] was 24.8%, the LogS (Water Solubility Assay; from aqueous solubility) was less than −8.5 and the “Aq. Solub.” value (Water Solubility Assay; water, room temperature, 24-36 h) was less than 0.001 µg/mL. For the same compound, the Sability % [2] was 95.6%.

For `CCCCc1nnc(-c2ccc(NC(=O)Nc3ccccc3C(F)(F)F)cc2)[nH]1` [Compound 119, 1-(4-(5-butyl-4H-1,2,4-triazol-3-yl)phenyl)-3-(2-(trifluoromethyl)phenyl)urea], the pIC50 [3] was 6.00, the pIC50 [4] was 4.89 and the pIC50 [5] was 4.33. For the same compound, the pIC50 [6] was 4.85.

With `CCCCc1nc(-c2ccc(NC(=O)Nc3ccccc3C(F)(F)F)cc2)no1` [Compound 106, 1-(4-(5-butyl-1,2,4-oxadiazol-3-yl)phenyl)-3-(2-(trifluoromethyl)phenyl)urea] the pIC50 [6] was 4.49, the pIC50 [7] was 4.43 and the pIC50 [8] was 4.45. The pIC50 [9] was 4.74.

In the case of `O=C(CN1C(=O)/C(=C/c2cccc(Br)c2)SC1=S)Nc1ccccc1O` [FE15], the pKi (ATPase activity of DDX3) is given as 5.27, the pEC50 (HIV-1 (IIIB)) is given as 4.06 and the CC50 (MOLT-4 T-lymphocytic) is given as greater than 200 µM.
